For data set [1], the system named is TNFα release in THP-1 cells. The data set can be described thus: LPS-induced TNFα release in THP-1 cells. To be noted: Homo sapiens. The format is cell-based, human. In outline:
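IC50 derived from concentration-response of TNFα inhibition relative to vehicle, with TNFα quantified by sandwich ELISA in supernatants. THP-1 cells were challenged 4 hr with LPS (E. coli, 3 μg/mL).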

The subject of data set [2] is IL-8 release in d-U937 cells. The experiment in a line: LPS-induced IL-8 release in d-U937 cells. In kind it is cell-based, human. To be noted: Homo sapiens, dU937. In outline:
(§1)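 Sandwich ELISA of TNFα and IL-8 in supernatants after 4 hr 0.1 μg/mL LPS (E. coli O111:B4) challenge of U937 cells differentiated with PMA 100 ng/ml for 48–72 hr, compound added 2 hr beforehand. IL-8: IC50 from inhibition versus vehicle; TNFα: REC50 from inhibition as percentage of 10 μg/mL BIRB796 effect.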

For data set [3], the system named is TNFα release in d-U937 cells. The experiment in a line: LPS-induced TNFα release in d-U937 cells. To be noted: Homo sapiens, dU937, relative to 10 μg/mL BIRB796, read-out: LPS/TNFα REC50 d-U937. The format is cell-based, human. In outline:
as §1

The next data set concerns the target T1, p38 MAPKγ (MAPK12) (Homo sapiens, UniProt P53778).
T1 construct: purchased Invitrogen
T1 sequence (P53778 1-367): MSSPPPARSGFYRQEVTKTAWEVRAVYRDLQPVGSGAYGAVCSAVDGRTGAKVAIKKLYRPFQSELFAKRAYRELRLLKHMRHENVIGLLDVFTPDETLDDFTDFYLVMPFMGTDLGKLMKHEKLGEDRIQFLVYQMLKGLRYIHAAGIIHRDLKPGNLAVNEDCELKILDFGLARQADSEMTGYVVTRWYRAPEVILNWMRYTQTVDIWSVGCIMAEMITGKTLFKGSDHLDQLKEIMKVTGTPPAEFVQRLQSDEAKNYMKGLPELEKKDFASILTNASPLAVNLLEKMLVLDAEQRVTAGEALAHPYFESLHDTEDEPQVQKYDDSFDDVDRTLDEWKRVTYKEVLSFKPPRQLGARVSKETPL
The experiment in a line: Enzyme inhibition assay (FRET, Z-LYTE), p38 MAPKγ. To be noted: read-out: Enzyme Inhibition IC50 p38γ. In kind it is biochemical. In outline:
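Z-LYTE FRET readout: after 1 h kinase reaction (ATP 100 μM, peptide 2 μM) following 2 h RT enzyme–compound preincubation in HEPES, protease cleaves only unphosphorylated peptide. Percent inhibition from donor/acceptor ratio relative to control; IC50 fitted from the curve.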

Data set [4] addresses T2, p38 MAPKα isoform (MAPK14) (Homo sapiens, UniProt Q16539).
T2 construct: purchased Invitrogen
The experiment in a line: Enzyme inhibition assay (FRET, Z-LYTE), p38 MAPKα via MAPKAP-K2 activation. The settings on record: read-out: Enzyme Inhibition IC50 p38α. The format is biochemical. In outline:
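Z-LYTE FRET format, in which protease cleaves only non-phosphorylated peptide, read after 1 h development. Compound was mixed with p38 MAPKα for 2 h at RT, and inhibition was gauged from MAPKAP-K2 activation/phosphorylation rather than directly. Percent inhibition against an uninhibited control was fitted to give IC50.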

Data set [5] deals with ICAM-1 induction in BEAS2B cells. The experiment in a line: Poly I:C-induced ICAM-1 induction in BEAS2B cells. In kind it is cell-based, human. The settings on record: Homo sapiens, BEAS-2B, read-out: PolyIC/ICAM1 IC50 BEAS2B. In outline:
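IC50 reflects inhibition of cell-surface ICAM-1 relative to vehicle, read by ELISA (OD450 against 655 nm) and divided by crystal violet OD595 for cell number. Readings were taken 18 hr after transfection of 1 μg/mL poly I:C into BEAS2B cells. Compound was added 2 hr before stimulation.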

For data set [6], the system named is Differentiated U937 cells. The experiment in a line: Cell viability MTT assay. In kind it is cell-based, human. The settings on record: negative = apparent increase in viability; for MTT Assay (Viability) 4 h d-U937, percentage loss of cell viability: 4 hr in 5% FCS; for MTT Assay (Viability) 24 h d-U937, percentage loss of cell viability: 24 h in 10% FCS. In a few lines: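 Differentiated U937 cells pre-incubated with compound either 4 hr in 5% FCS or 24 h in 10% FCS, then 1 hr MTT. Formazan dissolved in DMSO, absorbance at 550 nm. Percentage viability loss relative to 0.5% DMSO vehicle; apparent increases appear as negative percentages.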

The structures appear in SMILES notation.

T2 sequence (Q16539 whole entry, canonical isoform): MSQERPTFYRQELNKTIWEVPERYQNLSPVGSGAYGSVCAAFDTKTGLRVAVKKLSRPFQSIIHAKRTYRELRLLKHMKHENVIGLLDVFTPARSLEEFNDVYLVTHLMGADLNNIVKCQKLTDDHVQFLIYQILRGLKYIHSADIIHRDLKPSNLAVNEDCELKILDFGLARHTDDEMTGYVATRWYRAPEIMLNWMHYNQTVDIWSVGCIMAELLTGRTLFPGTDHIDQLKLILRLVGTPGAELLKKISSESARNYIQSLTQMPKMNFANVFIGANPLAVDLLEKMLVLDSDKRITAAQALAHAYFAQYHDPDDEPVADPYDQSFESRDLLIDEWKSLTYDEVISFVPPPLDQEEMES

For the molecule `COc1ccc(-n2nc(C(C)(C)C)cc2NC(=O)Nc2ccc(Oc3ccnc(NC(=O)NC4CC4)c3)c(Cl)c2Cl)cc1` [Example 65, 1-(4-(4-(3-(3-tert-butyl-1-(4-methoxyphenyl)-1H-pyrazol-5-yl)ureido)-2,3-dichlorophenoxy)pyridin-2-yl)-3-cyclopropylurea], the IC50 in data set [1] worked out at 2.7 nM; in data set [2], 3.8 nM; on p38 MAPKγ (MAPK12), 122 nM; in data set [4], 37.7 nM; in data set [5] it was 17.5 nM. In data set [3], the EC50 stood at 2 nM. Besides, the “MTT Assay (Viability) 4 h d-U937, percentage loss of cell viability” value in data set [6] is −4.7%. The “MTT Assay (Viability) 24 h d-U937, percentage loss of cell viability” value in data set [6] worked out at 20.2%.
Regarding `COc1ccc(-n2nc(C(C)(C)C)cc2NC(=O)Nc2ccc(Oc3ccnc(NC(=O)NCCO)c3)c(Cl)c2Cl)cc1` [Example 66, 1-(4-(4-(3-(3-tert-butyl-1-(4-methoxyphenyl)-1H-pyrazol-5-yl)ureido)-2,3-dichlorophenoxy)pyridin-2-yl)-3-(2-hydroxyethyl)urea], the IC50 in data set [1] was 1.1 nM; in data set [2], 4.9 nM; on p38 MAPKγ (MAPK12), 45 nM; in data set [4], 21.6 nM; in data set [5] it was 5.5 nM. Moreover, the EC50 in data set [3] worked out at 0.3 nM. Also, the “MTT Assay (Viability) 4 h d-U937, percentage loss of cell viability” value in data set [6] is 15.0%. The “MTT Assay (Viability) 24 h d-U937, percentage loss of cell viability” value in data set [6] turned out to be 90.3%.
Consider `COCCNC(=O)Nc1cc(Oc2ccc(NC(=O)Nc3cc(C(C)(C)C)nn3-c3ccc(OC)cc3)c(Cl)c2Cl)ccn1` [Example 67, 1-(4-(4-(3-(3-tert-butyl-1-(4-methoxyphenyl)-1H-pyrazol-5-yl)ureido)-2,3-dichlorophenoxy)pyridin-2-yl)-3-(2-methoxyethyl)urea], for which the IC50 was 1.2 nM in data set [1]; 5.8 nM in data set [2]; 67.8 nM at p38 MAPKγ (MAPK12); 27.9 nM in data set [4]; 2 nM in data set [5]. Further, the EC50 in data set [3] was 1.7 nM. Further, in data set [6], the “MTT Assay (Viability) 4 h d-U937, percentage loss of cell viability” value is reported as −11.4%. The “MTT Assay (Viability) 24 h d-U937, percentage loss of cell viability” value in data set [6] worked out at 40.9%.
As to `COc1ccc(-n2nc(C(C)(C)C)cc2NC(=O)Nc2ccc(Oc3ccnc(NC(=O)NCCN4CCOCC4)c3)c(Cl)c2Cl)cc1` [Example 68, 1-(4-(4-(3-(3-tert-butyl-1-(4-methoxyphenyl)-1H-pyrazol-5-yl)ureido)-2,3-dichlorophenoxy)pyridin-2-yl)-3-(2-morpholinoethyl)urea], the IC50 in data set [1] came out at 1.4 nM; in data set [2], 10.3 nM; at p38 MAPKγ (MAPK12) it was 137 nM; in data set [4], 18.2 nM; in data set [5] it was 3.3 nM. Besides, the EC50 in data set [3] was found to be 0.2 nM. In addition, the “MTT Assay (Viability) 4 h d-U937, percentage loss of cell viability” value in data set [6] is reported as 11.3%. Moreover, the “MTT Assay (Viability) 24 h d-U937, percentage loss of cell viability” value in data set [6] amounted to 73.3%.
In the case of `COc1ccc(-n2nc(C(C)(C)C)cc2NC(=O)Nc2ccc(Oc3ccnc(NC(=O)NCCCn4ccnc4)c3)c(Cl)c2Cl)cc1` [Example 69, 1-(3-(1H-imidazol-1-yl)propyl)-3-(4-(4-(3-(3-tert-butyl-1-(4-methoxyphenyl)-1H-pyrazol-5-yl)ureido)-2,3-dichlorophenoxy)pyridin-2-yl)urea], the IC50 in data set [1] stood at 1.4 nM; in data set [2], 4.2 nM; on p38 MAPKγ (MAPK12), 68.3 nM; in data set [4] it was 15.2 nM; in data set [5], 22.2 nM. In data set [3], the EC50 turned out to be 0.6 nM. In addition, in data set [6], the “MTT Assay (Viability) 4 h d-U937, percentage loss of cell viability” value was 8.8%. Besides, the “MTT Assay (Viability) 24 h d-U937, percentage loss of cell viability” value in data set [6] came to 75.5%.
For `CN(C)CCNC(=O)Nc1cc(Oc2ccc(NC(=O)Nc3cc(C(C)(C)C)nn3-c3ccc(CO)cc3)c(Cl)c2Cl)ccn1` [Example 70, 1-(3-tert-butyl-1-(4-hydroxymethylphenyl)-1H-pyrazol-5-yl)-3-(2,3-dichloro-4-(2-(3-(2-(dimethylamino)ethyl)ureido)pyridin-4-yloxy)phenyl)urea], the IC50 turned out to be 2.4 nM in data set [1]; 5.7 nM in data set [2]; 30.1 nM at p38 MAPKγ (MAPK12); 3.5 nM in data set [4]; 10.1 nM in data set [5]. Moreover, the EC50 in data set [3] came to 1.5 nM. Besides, in data set [6], the “MTT Assay (Viability) 4 h d-U937, percentage loss of cell viability” value was 6.1%. In addition, the “MTT Assay (Viability) 24 h d-U937, percentage loss of cell viability” value in data set [6] is 94.1%.
Consider `CC(C)(C)c1cc(NC(=O)Nc2ccc(Oc3ccnc(NC(=O)NCCN4CCOCC4)c3)c(Cl)c2Cl)n(-c2ccc(CO)cc2)n1` [Example 71, 1-(4-(4-(3-(3-tert-butyl-1-(4-hydroxymethylphenyl)-1H-pyrazol-5-yl)ureido)-2,3-dichlorophenoxy)pyridin-2-yl)-3-(2-morpholinoethyl) urea], for which the IC50 in data set [1] was determined as 0.7 nM; in data set [2] it was 1.4 nM; on p38 MAPKγ (MAPK12), 60.4 nM; in data set [4] it was 19.4 nM; in data set [5], 1.9 nM. Moreover, the EC50 in data set [3] was determined as 1.1 nM. Also, the “MTT Assay (Viability) 4 h d-U937, percentage loss of cell viability” value in data set [6] is reported as −20.5%. Also, the “MTT Assay (Viability) 24 h d-U937, percentage loss of cell viability” value in data set [6] came to 84.3%.
Take `Cc1ccc(-n2nc(C(C)(C)C)cc2NC(=O)Nc2ccc(Oc3ccnc(NC(=O)N4CCCC4)c3)c(Cl)c2Cl)cc1` [Example 72, N-(4-(4-(3-(3-tert-butyl-1-p-tolyl-1H-pyrazol-5-yl)ureido)-2,3-dichlorophenoxy)pyridin-2-yl) pyrrolidine-1-carboxamide]: the IC50 was 0.6 nM in data set [1]; 0.2 nM in data set [2]; 315 nM at p38 MAPKγ (MAPK12); 41.3 nM in data set [4]; 7.5 nM in data set [5]. For the same molecule, the EC50 in data set [3] was found to be 1.9 nM. Besides, the “MTT Assay (Viability) 4 h d-U937, percentage loss of cell viability” value in data set [6] is −13.7%. Also, the “MTT Assay (Viability) 24 h d-U937, percentage loss of cell viability” value in data set [6] stood at 26.9%.
As for `CNC(=O)Nc1cc(Oc2ccc(NC(=O)Nc3cc(C4(C)CCCCC4)nn3-c3ccc(C)cc3)c(Cl)c2Cl)ccn1` [Example 73, 1-(3-(1-methylcyclohexyl)-1-p-tolyl-1H-pyrazol-5-yl)-3-(2,3-dichloro-4-(2-(3-methylureido)pyridin-4-yloxy)phenyl)urea], the IC50 was found to be 12.8 nM in data set [1]; 1.9 nM in data set [2]; 243 nM on p38 MAPKγ (MAPK12); 151 nM in data set [4]; 1300 nM in data set [5]. Also, in data set [3], the EC50 was found to be 1.7 nM. Also, the “MTT Assay (Viability) 4 h d-U937, percentage loss of cell viability” value in data set [6] is reported as −27.3%. The “MTT Assay (Viability) 24 h d-U937, percentage loss of cell viability” value in data set [6] was 12.3%.
Take `Cc1ccc(-n2nc(C3(C)CCCCC3)cc2NC(=O)Nc2ccc(Oc3ccnc(NC(=O)N4CCCC4)c3)c(Cl)c2Cl)cc1` [Example 74, N-(4-(2,3-dichloro-4-(3-(3-(1-methylcyclohexyl)-1-p-tolyl-1H-pyrazol-5-yl)ureido)phenoxy)pyridin-2-yl)pyrrolidine-1-carboxamide]: the IC50 turned out to be 11.5 nM in data set [1]; 2.7 nM in data set [2]; 744 nM on p38 MAPKγ (MAPK12); 328 nM in data set [4]; 4.6 nM in data set [5]. In addition, the EC50 in data set [3] amounted to 0.5 nM. Moreover, the “MTT Assay (Viability) 4 h d-U937, percentage loss of cell viability” value in data set [6] is 1.2%. Besides, the “MTT Assay (Viability) 24 h d-U937, percentage loss of cell viability” value in data set [6] is given as 5.5%.

For the origin of these results see patent US10000471B2, “Pyrazole P38 map kinase inhibitors” (Respivert Limited, priority 2010, dated 2018).
